Measurements published in PMC3119665, “A New Drug Design Targeting the Adenosinergic System for Huntington's Disease” (PLoS ONE, 2011).

Legend:
[1] = tested on: GABAA, Chloride Channel, TBPS; experiment: Radioligand binding panel (Table S1); design: species or system rat; details: 10 μM T1-11, n 2
APJ = target: T1, APJ (Homo sapiens, UniProt P35414); experiment: Radioligand binding panel (Table S1); details: 10 μM T1-11, n 2
T1 construct: purchased MDS Pharma Services Taiwan

Estrogen ERα = target: T2, Estrogen ERα (Homo sapiens, UniProt P03372); experiment: Radioligand binding panel (Table S1); details: 10 μM T1-11, n 2
T2 construct: purchased MDS Pharma Services Taiwan
T2 sequence (P03372 whole entry): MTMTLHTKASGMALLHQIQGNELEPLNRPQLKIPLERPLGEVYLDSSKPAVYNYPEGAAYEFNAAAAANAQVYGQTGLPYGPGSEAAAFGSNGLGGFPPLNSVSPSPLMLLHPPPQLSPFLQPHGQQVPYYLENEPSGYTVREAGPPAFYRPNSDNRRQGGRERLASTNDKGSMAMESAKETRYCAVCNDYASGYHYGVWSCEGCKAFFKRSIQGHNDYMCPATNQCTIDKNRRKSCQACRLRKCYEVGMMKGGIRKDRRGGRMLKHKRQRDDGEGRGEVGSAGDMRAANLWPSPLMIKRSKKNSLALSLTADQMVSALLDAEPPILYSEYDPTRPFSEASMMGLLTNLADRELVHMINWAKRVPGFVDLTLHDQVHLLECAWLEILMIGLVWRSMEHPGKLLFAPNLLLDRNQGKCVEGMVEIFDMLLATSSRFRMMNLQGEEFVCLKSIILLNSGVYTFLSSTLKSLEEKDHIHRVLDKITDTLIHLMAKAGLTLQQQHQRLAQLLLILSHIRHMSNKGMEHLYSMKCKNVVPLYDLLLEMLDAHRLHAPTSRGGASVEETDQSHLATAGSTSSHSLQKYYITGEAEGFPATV

[2] = tested on: Serotonin (5-Hydroxytryptamine) 5-HT2, Non-Selective; experiment: Radioligand binding panel (Table S1); design: species or system rat; details: 10 μM T1-11, n 2
Adrenergic α 1D = target: T3, Adrenergic α 1D (Homo sapiens, UniProt P25100); experiment: Radioligand binding panel (Table S1); details: 10 μM T1-11, n 2
T3 construct: purchased MDS Pharma Services Taiwan

Transporter, GABA = target: T4, Transporter, GABA (Rattus norvegicus, UniProt P23978); experiment: Radioligand binding panel (Table S1); details: 10 μM T1-11, n 2
T4 construct: purchased MDS Pharma Services Taiwan

Dopamine D2L = target: T5, Dopamine D2L (Homo sapiens, UniProt P14416); experiment: Radioligand binding panel (Table S1); details: 10 μM T1-11, n 2
T5 construct: purchased MDS Pharma Services Taiwan

[3] = tested on: Neurotensin, Non-Selective; experiment: Radioligand binding panel (Table S1); design: species or system mouse; details: 10 μM T1-11, n 2
[4] = tested on: Melatonin MT, Non-Selective; experiment: Radioligand binding panel (Table S1); design: species or system chicken; details: 10 μM T1-11, n 2
R6/2 mice = experiment: Rotarod performance of R6/2 mice; type: in vivo
Excerpt: Male R6/2 mice and littermate controls were originally obtained from Jackson Laboratories (Bar Harbor, ME, USA), and mated to female control mice (B6CBAFI/J). Offspring were identified by a polymerase chain reaction (PCR) genotyping technique of genomic DNA extracted from tail tissues using primers located in the transgene (5′-[…]-3′ and 5′-[…]- AGGAG-3′) to ensure that the number of CAG repeats remained approximately 150. In total, 211 R6/2 transgenic mice were used in this study. Animals were housed at the Institute of Biomedical Sciences Animal Care Facility under a 12-h light/dark cycle. Body weights of mice were recorded once daily. Animal experiments were performed under protocols approved by the Academia Sinica Institutional Animal Care and Utilization Committee, Taipei, Taiwan.
Motor coordination was assessed using a rotarod apparatus (UGO BASILE, Comerio, Italy) at a constant speed (12 rpm) over the period of 2 min [75]. All mice were trained for 2 days at the age of 4 weeks to allow them to become acquainted with the rotarod apparatus. Animals were then tested three times per week from the ages of 4∼12 weeks. For each test, animals were placed in the apparatus before initiation of rotation. Latency to falling was automatically recorded. Each mouse was given three trials for a maximum of 2 min for each trial.

striatal adenosine = experiment: In vivo brain dialysis and adenosine measurement; design: species or system mice; details: T1-11 100 µM perfused through the dialysis probe
Method: The level of adenosine in the brain was determined using microdialysis as previously described, [73]. In brief, concentrated dialysis probes with 4-mm dialysis membranes (CMA, Stockholm, Sweden) were used to monitor the extracellular adenosine in the striatum of rats. After inducing anesthesia with chloral hydrate ([…], IP), rats were implanted with the probe, and the coordinates for implantation were AP +1.0 mm, LM +2.8 mm, and VD −6.5 mm. Ringer's solution (140 mM NaCl, 1.2 mM CaCl2, 3.0 mM KCl, 1.0 mM MgCl2, and 0.04 mM ascorbic acid) was continuously perfused (0.5 µl/min) via probes throughout the experiments. After implantation and perfusion for 1.5 h, the perfusate was collected for 1 h as a baseline and then Ringer's solution containing T1-11 (100 µM) was perfused for another 1 h. The perfusate was analyzed by high-performance liquid chromatography (HPLC; Agilent 1100 series, Germany) coupled with a photo diode array detector (Agilent G1315B,) at 260 nm. Separations were obtained with a reversed-phase column (Cosmosil 5C18-AR-II, 250×4.6 mm, Kyoto, Japan) eluted at a flow rate of 1.0 ml/min with a linear solvent gradient elution system composed of eluents A and B (A: 0.0085% H3PO4 in H2O; B: 100% acetonitrile) according to the following profile: 0∼15 min, 100%∼90% A, 0%∼10% B.

Sigma, Non-Selective = experiment: Radioligand binding panel (Table S1); design: species or system guinea pig; details: 10 μM T1-11, n 2
Dopamine D4.7 = target: T6, Dopamine D4.7 (Homo sapiens, UniProt P21917, INS283GLPPDPCGPDCAPPAPGLPQDPCGPDCAPPAPGLPRGPCGPDCAPPAP/S284G); experiment: Radioligand binding panel (Table S1); details: 10 μM T1-11, n 2
T6 construct: purchased MDS Pharma Services Taiwan
T6 sequence (P21917 with tags, fused parts or gaps with the stated changes): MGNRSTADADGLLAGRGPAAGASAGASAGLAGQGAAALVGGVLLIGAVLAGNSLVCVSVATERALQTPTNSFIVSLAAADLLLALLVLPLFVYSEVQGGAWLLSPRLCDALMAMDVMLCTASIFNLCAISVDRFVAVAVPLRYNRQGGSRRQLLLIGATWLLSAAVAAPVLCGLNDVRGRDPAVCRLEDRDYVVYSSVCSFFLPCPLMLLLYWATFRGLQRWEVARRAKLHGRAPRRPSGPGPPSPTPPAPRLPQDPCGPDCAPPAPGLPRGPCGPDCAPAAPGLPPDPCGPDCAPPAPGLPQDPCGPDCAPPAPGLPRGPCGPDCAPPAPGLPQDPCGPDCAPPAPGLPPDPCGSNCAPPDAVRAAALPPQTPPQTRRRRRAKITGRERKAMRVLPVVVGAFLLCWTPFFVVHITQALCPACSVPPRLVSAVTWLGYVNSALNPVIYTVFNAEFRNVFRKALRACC

Bombesin BB2 = target: T7, Bombesin BB2 (Homo sapiens, UniProt P30550); experiment: Radioligand binding panel (Table S1); details: 10 μM T1-11, n 2
T7 construct: purchased MDS Pharma Services Taiwan

Angiotensin AT1 = target: T8, Angiotensin AT1 (Homo sapiens, UniProt P30556); experiment: Radioligand binding panel (Table S1); details: 10 μM T1-11, n 2
T8 construct: purchased MDS Pharma Services Taiwan
T8 sequence (P30556 whole entry): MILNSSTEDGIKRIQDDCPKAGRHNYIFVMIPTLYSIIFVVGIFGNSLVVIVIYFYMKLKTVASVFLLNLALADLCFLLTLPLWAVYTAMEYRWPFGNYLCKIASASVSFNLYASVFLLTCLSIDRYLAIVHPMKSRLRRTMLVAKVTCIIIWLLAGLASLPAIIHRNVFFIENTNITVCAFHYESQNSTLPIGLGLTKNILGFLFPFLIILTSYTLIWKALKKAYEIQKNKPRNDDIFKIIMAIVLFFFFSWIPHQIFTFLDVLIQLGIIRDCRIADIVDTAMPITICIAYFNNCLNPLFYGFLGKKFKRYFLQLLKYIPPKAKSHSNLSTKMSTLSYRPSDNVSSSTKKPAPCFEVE

Muscarinic M1 = target: T9, Muscarinic M1 (Homo sapiens, UniProt P11229); experiment: Radioligand binding panel (Table S1); details: 10 μM T1-11, n 2
T9 construct: purchased MDS Pharma Services Taiwan
T9 sequence (P11229 whole entry): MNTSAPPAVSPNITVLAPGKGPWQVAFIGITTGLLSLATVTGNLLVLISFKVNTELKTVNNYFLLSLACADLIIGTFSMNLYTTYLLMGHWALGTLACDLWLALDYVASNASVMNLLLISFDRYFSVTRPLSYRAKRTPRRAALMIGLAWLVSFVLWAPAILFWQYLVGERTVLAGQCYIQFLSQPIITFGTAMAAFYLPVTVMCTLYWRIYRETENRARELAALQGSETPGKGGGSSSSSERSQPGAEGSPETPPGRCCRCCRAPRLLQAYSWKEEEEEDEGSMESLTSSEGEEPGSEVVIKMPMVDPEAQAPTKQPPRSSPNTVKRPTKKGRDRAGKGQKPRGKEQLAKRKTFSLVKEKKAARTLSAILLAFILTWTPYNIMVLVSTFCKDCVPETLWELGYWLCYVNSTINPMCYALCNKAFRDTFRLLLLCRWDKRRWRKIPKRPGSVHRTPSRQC

[5] = target: T10, Serotonin (5-Hydroxytryptamine) 5-HT3 (Homo sapiens, UniProt P46098); experiment: Radioligand binding panel (Table S1); details: 10 μM T1-11, n 2
T10 construct: purchased MDS Pharma Services Taiwan

[6] = tested on: Thyrotropin Releasing Hormone (TRH); experiment: Radioligand binding panel (Table S1); design: species or system rat; details: 10 μM T1-11, n 2
Melatonin MT2 = target: T11, Melatonin MT2 (Homo sapiens, UniProt P49286); experiment: Radioligand binding panel (Table S1); details: 10 μM T1-11, n 2
T11 construct: purchased MDS Pharma Services Taiwan

Opiate, Non-Selective = experiment: Radioligand binding panel (Table S1); design: species or system rat; details: 10 μM T1-11, n 2
Galanin GAL1 = target: T12, Galanin GAL1 (Homo sapiens, UniProt P47211); experiment: Radioligand binding panel (Table S1); details: 10 μM T1-11, n 2
T12 construct: purchased MDS Pharma Services Taiwan
T12 sequence (P47211 whole entry): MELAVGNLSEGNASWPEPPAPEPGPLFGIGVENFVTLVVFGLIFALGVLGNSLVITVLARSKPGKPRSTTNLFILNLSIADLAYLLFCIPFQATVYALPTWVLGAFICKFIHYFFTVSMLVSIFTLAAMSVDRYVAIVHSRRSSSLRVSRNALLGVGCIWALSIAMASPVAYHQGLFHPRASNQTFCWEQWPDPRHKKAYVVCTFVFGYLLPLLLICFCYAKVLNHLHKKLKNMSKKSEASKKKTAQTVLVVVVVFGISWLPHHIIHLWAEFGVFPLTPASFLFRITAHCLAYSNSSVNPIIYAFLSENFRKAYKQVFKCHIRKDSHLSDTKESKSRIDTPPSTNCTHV

Orexin OX 2 = target: T13, Orexin OX 2 (Homo sapiens, UniProt O43614); experiment: Radioligand binding panel (Table S1); details: 10 μM T1-11, n 2
T13 construct: purchased MDS Pharma Services Taiwan
T13 sequence (O43614 whole entry): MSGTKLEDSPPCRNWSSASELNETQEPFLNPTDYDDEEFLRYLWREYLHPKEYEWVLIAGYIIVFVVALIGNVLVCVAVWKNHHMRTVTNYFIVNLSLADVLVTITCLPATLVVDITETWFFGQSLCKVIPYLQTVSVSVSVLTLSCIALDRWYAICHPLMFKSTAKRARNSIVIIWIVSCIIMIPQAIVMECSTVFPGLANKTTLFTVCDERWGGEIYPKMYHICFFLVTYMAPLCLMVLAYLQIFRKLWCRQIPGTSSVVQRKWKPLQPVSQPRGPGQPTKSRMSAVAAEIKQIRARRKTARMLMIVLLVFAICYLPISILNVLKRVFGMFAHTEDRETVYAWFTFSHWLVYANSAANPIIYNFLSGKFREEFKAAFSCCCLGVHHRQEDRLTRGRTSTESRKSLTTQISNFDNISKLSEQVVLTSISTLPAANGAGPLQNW

Adrenergic α 2A = target: T14, Adrenergic α 2A (Homo sapiens, UniProt P08913); experiment: Radioligand binding panel (Table S1); details: 10 μM T1-11, n 2
T14 construct: purchased MDS Pharma Services Taiwan
T14 sequence (P08913 whole entry): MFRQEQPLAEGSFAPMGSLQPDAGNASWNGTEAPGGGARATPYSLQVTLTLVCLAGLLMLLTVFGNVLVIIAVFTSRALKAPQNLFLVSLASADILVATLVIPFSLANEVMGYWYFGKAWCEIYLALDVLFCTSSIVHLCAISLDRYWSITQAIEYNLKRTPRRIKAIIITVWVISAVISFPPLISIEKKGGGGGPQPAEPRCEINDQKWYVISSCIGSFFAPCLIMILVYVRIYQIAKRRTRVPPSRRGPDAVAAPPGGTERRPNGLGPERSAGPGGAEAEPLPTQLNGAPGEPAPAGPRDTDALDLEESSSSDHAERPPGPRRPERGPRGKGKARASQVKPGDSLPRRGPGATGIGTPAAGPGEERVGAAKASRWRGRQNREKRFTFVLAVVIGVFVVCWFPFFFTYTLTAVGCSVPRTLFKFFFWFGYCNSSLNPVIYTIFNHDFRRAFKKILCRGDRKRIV

Dopamine D4.4 = target: T15, Dopamine D4.4 (Homo sapiens, UniProt P21917); experiment: Radioligand binding panel (Table S1); details: 10 μM T1-11, n 2
T15 construct: purchased MDS Pharma Services Taiwan
T15 sequence (P21917 whole entry): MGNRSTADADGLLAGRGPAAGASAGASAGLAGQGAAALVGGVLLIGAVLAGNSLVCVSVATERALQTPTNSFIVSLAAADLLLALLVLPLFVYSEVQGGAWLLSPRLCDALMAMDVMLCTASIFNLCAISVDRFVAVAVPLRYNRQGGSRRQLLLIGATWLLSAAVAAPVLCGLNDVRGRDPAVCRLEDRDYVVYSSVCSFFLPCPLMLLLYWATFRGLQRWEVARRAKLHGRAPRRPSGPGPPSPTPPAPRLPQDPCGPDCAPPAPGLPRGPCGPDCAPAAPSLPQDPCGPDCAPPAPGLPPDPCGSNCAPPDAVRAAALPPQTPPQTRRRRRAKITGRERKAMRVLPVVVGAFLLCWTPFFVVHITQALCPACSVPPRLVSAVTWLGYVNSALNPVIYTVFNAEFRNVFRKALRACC

[7] = tested on: Glutamate, NMDA, Phencyclidine; experiment: Radioligand binding panel (Table S1); design: species or system rat; details: 10 μM T1-11, n 2
[8] = tested on: Calcium Channel L-Type, Benzothiazepine; experiment: Radioligand binding panel (Table S1); design: species or system rat; details: 10 μM T1-11, n 2
[9] = target: T16, Growth Hormone, Secretagogue (GHS, Ghrelin) (Homo sapiens, UniProt Q92847); experiment: Radioligand binding panel (Table S1); details: 10 μM T1-11, n 2
T16 construct: purchased MDS Pharma Services Taiwan
T16 sequence (Q92847 whole entry): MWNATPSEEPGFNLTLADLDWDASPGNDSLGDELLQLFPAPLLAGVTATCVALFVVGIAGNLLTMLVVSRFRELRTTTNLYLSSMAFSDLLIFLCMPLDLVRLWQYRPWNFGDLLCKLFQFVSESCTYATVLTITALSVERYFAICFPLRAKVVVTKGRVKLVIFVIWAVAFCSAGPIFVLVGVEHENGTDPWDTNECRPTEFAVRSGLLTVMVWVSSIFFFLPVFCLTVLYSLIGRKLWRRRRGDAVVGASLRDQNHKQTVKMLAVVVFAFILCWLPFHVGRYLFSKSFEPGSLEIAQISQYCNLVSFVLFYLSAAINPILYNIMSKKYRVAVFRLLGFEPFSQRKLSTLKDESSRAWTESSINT

Sodium Channel, Site 2 = experiment: Radioligand binding panel (Table S1); design: species or system rat; details: 10 μM T1-11, n 2

T1 sequence (P35414 whole entry): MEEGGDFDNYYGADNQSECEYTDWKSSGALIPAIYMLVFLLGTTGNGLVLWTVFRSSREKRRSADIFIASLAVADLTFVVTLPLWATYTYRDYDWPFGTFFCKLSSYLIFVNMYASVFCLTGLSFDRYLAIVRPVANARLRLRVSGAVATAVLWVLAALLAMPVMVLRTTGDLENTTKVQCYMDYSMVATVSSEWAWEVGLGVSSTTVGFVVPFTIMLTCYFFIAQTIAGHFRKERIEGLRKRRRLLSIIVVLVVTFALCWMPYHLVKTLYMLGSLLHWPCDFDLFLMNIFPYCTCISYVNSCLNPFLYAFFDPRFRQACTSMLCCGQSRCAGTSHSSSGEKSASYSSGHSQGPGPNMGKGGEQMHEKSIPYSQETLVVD

OC[C@H]1O[C@@H](n2cnc3c(NCc4ccc(O)cc4)ncnc32)[C@H](O)[C@@H]1O [T1-11, N ^6-(4-hydroxybenzyl)adenine riboside]
% Inhibition [1]: 6% | inhibition at 10 µM (APJ): 21% | inhibition at 10 µM (Estrogen ERα): 32% | % Inhibition [2]: 15% | inhibition at 10 µM (Adrenergic α 1D): 8% | inhibition at 10 µM (Transporter, GABA): 8% | inhibition at 10 µM (Dopamine D2L): 13% | % Inhibition [3]: 15% | % Inhibition [4]: -3% | Motor coordination (rotarod performance) (R6/2 mice; 0.05 mg/ml in drinking water from the age of 7 weeks): counteracted the progressive deterioration in motor coordination | Motor deterioration (rotarod performance) (R6/2 mice; subcutaneous Alzet minipump, 125 µg/mouse/day): improved motor deterioration | Level of striatal adenosine (microdialysis) (striatal adenosine): significantly enhanced the level of striatal adenosine | % Inhibition (Sigma, Non-Selective): -3% | inhibition at 10 µM (Dopamine D4.7): 3% | inhibition at 10 µM (Bombesin BB2): 3% | inhibition at 10 µM (Angiotensin AT1): -5% | inhibition at 10 µM (Muscarinic M1): -1% | inhibition at 10 µM [5]: 5% | % Inhibition [6]: -4% | inhibition at 10 µM (Melatonin MT2): -20% | % Inhibition (Opiate, Non-Selective): -13% | inhibition at 10 µM (Galanin GAL1): 0% | inhibition at 10 µM (Orexin OX 2): -7% | inhibition at 10 µM (Adrenergic α 2A): -8% | inhibition at 10 µM (Dopamine D4.4): 8% | % Inhibition [7]: -2% | % Inhibition [8]: -8% | inhibition at 10 µM [9]: -4% | % Inhibition (Sodium Channel, Site 2): 3%
